Measurements published in article PMC7936271, “Discovery and characterization of bromodomain 2–specific inhibitors of BRDT” (Proceedings of the National Academy of Sciences of the …, 2021).

Tests used:
[1] = biological target: BRDT-BD2
[2] = biological target: BRDT-BD1

| Structure (SMILES) | IC50 [1] [nM] | IC50 [2] [nM] |
| --- | --- | --- |
| CC(=O)Nc1cc(NC(=O)c2ccc3c(c2)c(-c2ccc(N)nc2)nn3C(C)C)ccc1C | 253 | > 10000 |
| CC(=O)Nc1cc(NC(=O)c2ccc3c(c2)c(-c2cnc(N)cc2C)nn3C)ccc1C | 126 |  |
| CCn1nc(-c2ccc(N)nc2)c2cc(C(=O)Nc3ccc(C)c(NC(C)=O)c3)ccc21 | 79 | > 10000 |
| CNC(=O)c1ccc(C(=O)Nc2cc(NC(=O)c3ccc4c(c3)c(-c3ccc(C)cc3C)nn4C)ccc2OC)cc1 | 26 |  |
| CNC(=O)c1ccc(C(=O)Nc2cc(NC(=O)c3ccc4c(c3)c(-c3ccc(N)cc3)nn4C)ccc2OC)cc1 | 15 | > 10000 |
| CNC(=O)c1ccc(C(=O)Nc2cc(NC(=O)c3ccc4c(c3)c(-c3ccc(N)cc3C)nn4C)ccc2OC)cc1 | 12 | > 10000 |
| CNC(=O)c1ccc(C(=O)Nc2cc(NC(=O)c3ccc4c(c3)c(-c3ccc(OC)cc3)nn4C)ccc2C)cc1 | 521 | > 10000 |
| CNC(=O)c1ccc(C(=O)Nc2cc(NC(=O)c3ccc4c(c3)c(-c3ccccc3C)nn4C)ccc2OC)cc1 | 61 | 6300 |
| COc1ccc(NC(=O)c2ccc3c(c2)c(-c2cc4ccccc4n2C)nn3C)c(C)c1 | 183 |  |
| COc1ccc(NC(=O)c2ccc3c(c2)c(-c2cc4ccccc4n2C)nn3C)c(Cl)c1 | > 1250 |  |
| COc1ccc(NC(=O)c2ccc3c(c2)c(-c2cc4ccccc4n2C)nn3C)c(F)c1 | 203 |  |
| COc1ccc(NC(=O)c2ccc3c(c2)c(-c2cc4ccccc4n2C)nn3C)c(OC)c1 | 926 |  |
| COc1ccc(NC(=O)c2ccc3c(c2)c(-c2cc4ccccc4n2C)nn3C)cc1 | 121 |  |
| COc1ccc(NC(=O)c2ccc3c(c2)c(-c2cc4ccccc4n2C)nn3C)cc1C | 111 |  |
| COc1ccc(NC(=O)c2ccc3c(c2)c(-c2cc4ccccc4n2C)nn3C)cc1Cl | 164 |  |
| COc1ccc(NC(=O)c2ccc3c(c2)c(-c2cc4ccccc4n2C)nn3C)cc1F | 119 |  |
